What was measured:
Assay type in all cases: physicochemical
[1] = Stability of dioxetane on silica (TLC versus NMR); conditions: TLC on silica compared with 1H NMR
Experimental: (c) Synthesis of 4-ethylthio-4-(3-pivaloyloxyphenyl)spiro[1,2-dioxetane-3,2'-tricyclo[3.3.1.1^3,7 ]decane] (2). A small photooxygenation apparatus was charged with 60 mg (0.16 mmol) of the vinyl sulfide, 180 mg of polymer-bound Rose Bengal (U.S. Pat. No. 4,315,998), and 20 mL of CH2 Cl2 dried over MgSO4. The resulting mixture was then cooled to -78° C. with oxygen bubbling through it. After several minutes, the reaction solution was irradiated with a 1000 W sodium lamp for 25 min. […] The sensitizer was filtered off, the solvent evaporated at 0° C. and the material examined by ^1 H NMR.

[2] = First order decay of chemiluminescence (base-induced decay) of hydroxyphenyl alkylthio dioxetane in alkaline buffer with surfactant enhancers; conditions: 0.2M 221 buffer pH 9.6, 0.88 mM Mg+2, ambient temperature
Experimental: Comparison of Rates of Base-Induced Decay of a Hydroxyphenyl Alkylthio Dioxetane. The first order decay of chemiluminescence of dioxetane 3 in 0.2M 221 buffer, pH 9.6 containing 0.88 mM Mg^+2 and the surfactant enhancers shown below was measured at ambient temperature. Surfactant A is CTAB, B is poly(vinylbenzyltributylphosphonium chloride), C is poly(vinylbenzyltributylphosphonium chloride)-co-poly(vinylbenzyltrioctylphosphonium chloride), D is 1-trioctylphosphoniummethyl-4-tributylphosphoniummethylbenzene dichloride.

[3] = First order decay of chemiluminescence (base-induced decay) of hydroxyphenyl alkoxy or aryloxy dioxetanes in alkaline buffer; conditions: 37° C.; 0.2M 221 buffer, pH 9.6, 0.88 mM Mg+2, 1.0 mg/mL 1-trioctylphosphoniummethyl-4-tributylphosphoniummethylbenzene dichloride
Experimental: Comparison of Rates of Base-Induced Decay of Hydroxy-phenyl Alkoxy or Aryloxy Dioxetanes. The first order decay of chemiluminescence of dioxetanes 14-19 in 0.2M 2-methyl-2-amino-1-propanol (221) buffer, pH 9.6 containing 0.88 mM Mg^+2 and 1.0 mg/mL of 1-trioctylphosphoniummethyl-4-tributylphosphoniummethylbenzene dichloride was measured at 37° C. in a Turner Designs (Sunnyvale, Calif.) model TD-20e luminometer. The half-lives of decay of chemiluminescence (t1/2) of hydroxy-dioxetanes correlate with the times required to reach the maximum light intensity (Imax) in the alkaline phosphatase-triggered decomposition of the corresponding phosphate-dioxetanes under the same conditions. […] It is expected that, for example, the phosphate derivatives of dioxetanes 14-19 as well as others which can be produced by the process described herein will be useful in alkaline phosphatase-linkedassays known in the art.

Structure (SMILES) | t1/2 of decay of chemiluminescence [3] [min] | other results
CCSC1(c2cccc(OC(=O)C(C)(C)C)c2)OOC12C1CC3CC(C1)CC2C3 (stereo not shown) [Dioxetane 2, 4-Ethylthio-4-(3-pivaloyloxyphenyl)spiro[1,2-dioxetane-3,2'-tricyclo-[3.3.1.1^3,7]decane]] | – | stability on silica [1]: less stable on silica
Oc1cccc(C2(Sc3ccc(F)cc3)OOC23C2CC4CC(C2)CC3C4)c1 (stereo not shown) [Dioxetane 3, 4-(p-Fluorophenylthio)-4-(3-hydroxyphenyl)spiro[1,2-dioxetane-3,2'-tricyclo[3.3.1.1^3,7]decane]] | – | t1/2 of decay of chemiluminescence ([2]; Surfactant A (CTAB) 0.41 g/L): 11.2 min; t1/2 of decay of chemiluminescence ([2]; Surfactant B (poly(vinylbenzyltributylphosphonium chloride)) 0.5 g/L): 4.2 min; t1/2 of decay of chemiluminescence ([2]; Surfactant C (poly(vinylbenzyltributylphosphonium chloride)-co-poly(vinylbenzyltrioctylphosphonium chloride)) 0.5 g/L): 2.9 min; t1/2 of decay of chemiluminescence ([2]; Surfactant D (1-trioctylphosphoniummethyl-4-tributylphosphoniummethylbenzene dichloride) 1.0 g/L): 2.0 min
Oc1cccc(C2(OCC(Cl)(Cl)Cl)OOC23C2CC4CC(C2)CC3C4)c1 (stereo not shown) [Dioxetane 15, 4-(3-Hydroxyphenyl)-4-(2,2,2-trichloroethoxy)spiro[1,2-dibxetane-3,2'-tricyclo[3.3.1.1^3,7]decane]] | 3.7 | –
Oc1cccc(C2(OCC(Cl)Cl)OOC23C2CC4CC(C2)CC3C4)c1 (stereo not shown) [Dioxetane 16, 4-(2,2-Dichloroethoxy)-4-(3-hydroxyphenyl)spiro[1,2-dioxetane-3,2'-tricyclo-[3.3.1.1^3,7]decane]] | 4.1 | –
Oc1cccc(C2(OCC(F)(F)C(F)(F)F)OOC23C2CC4CC(C2)CC3C4)c1 (stereo not shown) [Dioxetane 17, 4-(3-Hydroxyphenyl)-4-(2,2,3,3,3-pentafluoropropoxy)spiro[1,2-dioxetane-3,2'-tricyclo[3.3.1.1^3,7]decane]] | 3.4 | –
Oc1cccc(C2(OCC(F)(F)C(F)(F)C(F)(F)F)OOC23C2CC4CC(C2)CC3C4)c1 (stereo not shown) [Dioxetane 18, 4-(2,2,3,3,4,4,4-Heptafluorobutoxy)-4-(3-hydroxyphenyl)spiro[1,2-dioxetane-3,2'-tricyclo[3.3.1.1^3,7]decane]] | 4.9 | –
Oc1cccc(C2(Oc3c(F)cccc3F)OOC23C2CC4CC(C2)CC3C4)c1 (stereo not shown) [Dioxetane 19, 4-(2',6'-Difluorophenoxy)-4-(3-hydroxyphenyl)spiro[1,2-dioxetane-3,2'-tricyclo[3.3.1.1^3,7]decane]] | 1.76 | –

Source: patent US5883287A, “Vinyl sulfide compounds and a process for their preparation” (Lumigen, Inc., priority 1997, dated 1999)
